Tests used:
Test in all cases: relative viability (nuclei count vs DMSO), 5 days (fraction); higher = more cells survive
Bortezomib + Pemetrexed = compound: CC(C)C[C@H](NC(=O)[C@H](Cc1ccccc1)NC(=O)c1cnccn1)B(O)O [Bortezomib] + Nc1nc2[nH]cc(CCc3ccc(C(=O)N[C@@H](CCC(=O)O)C(=O)O)cc3)c2c(=O)[nH]1 [Pemetrexed] (partner 0.2 µM)
How it was run: (§1)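 A single step with final 0.05% Triton X-100, 1% formaldehyde and 1 ug/ml Hoechst fixed the cells and stained nuclei 5 days after treatment. Lung cancer cell lines in 1536-well plates had been treated by pin tool the day after seeding with one drug alone or a fixed anchor-drug dose plus five library-drug doses (not always all listed) in √10 steps, and nuclei were counted on 4× images. Relative viability is the ratio of nuclei in treated wells to nuclei in vehicle wells, taken as the median of duplicate plates.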

[1] = compound: CC1=CC(=NN1)NC2=CC(=NC(=N2)/C=C/C3=CC=CC=C3)N4CCN(CC4)C + C[C@@H](Oc1cc(-c2cnn(C3CCNCC3)c2)cnc1N)c1c(Cl)ccc(F)c1Cl [Crizotinib] (partner 1 µM)
How it was run: as §1

[2] = compound: CC1=CC(=NN1)NC2=CC(=NC(=N2)/C=C/C3=CC=CC=C3)N4CCN(CC4)C + Cc1cc(Nc2cc(N3CCN(C)CC3)nc(Sc3ccc(NC(=O)C4CC4)cc3)n2)n[nH]1 [Tozasertib] (partner 0.1 µM)
How it was run: as §1

Obatoclax + Pemetrexed = compound: COC1=CC(c2cc3ccccc3[nH]2)=N/C1=C\c1[nH]c(C)cc1C [Obatoclax] + Nc1nc2[nH]cc(CCc3ccc(C(=O)N[C@@H](CCC(=O)O)C(=O)O)cc3)c2c(=O)[nH]1 [Pemetrexed] (partner 0.2 µM)
How it was run: as §1

| Cell Line | relative viability (Bortezomib + Pemetrexed; first compound 0.0002 µM) | relative viability (Bortezomib + Pemetrexed; first compound 0.000632 µM) | relative viability (Bortezomib + Pemetrexed; first compound 0.002 µM) | relative viability (Bortezomib + Pemetrexed; first compound 0.006325 µM) | relative viability (Bortezomib + Pemetrexed; first compound 0.02 µM) | relative viability ([1]; first compound 0.08 µM) | relative viability ([1]; first compound 0.253 µM) | relative viability ([1]; first compound 0.8 µM) | relative viability ([1]; first compound 2.53 µM) | relative viability ([1]; first compound 8 µM) | relative viability ([2]; first compound 0.08 µM) | relative viability ([2]; first compound 0.253 µM) | relative viability ([2]; first compound 0.8 µM) | relative viability ([2]; first compound 2.53 µM) | relative viability ([2]; first compound 8 µM) | relative viability (Obatoclax + Pemetrexed; first compound 0.01 µM) | relative viability (Obatoclax + Pemetrexed; first compound 0.03162 µM) | relative viability (Obatoclax + Pemetrexed; first compound 0.1 µM) | relative viability (Obatoclax + Pemetrexed; first compound 0.3162 µM) | relative viability (Obatoclax + Pemetrexed; first compound 1 µM) |
| --- | --- | --- | --- | --- | --- | --- | --- | --- | --- | --- | --- | --- | --- | --- | --- | --- | --- | --- | --- | --- |
| NCI-H2023 | 0.25 | 0.247 | 0.246 | 0.0916 | 0.0786 | 0.631 | 0.611 | 0.343 | 0.0794 | 0.0532 | 0.266 | 0.305 | 0.235 | 0.0983 | 0.0659 | 0.3 | 0.217 | 0.24 | 0.188 | 0.134 |
| EBC-1 |  |  |  |  |  | 0.188 | 0.185 | 0.213 | 0.137 | 0.108 |  |  |  |  |  |  |  |  |  |  |
| NCI-H1666 | 0.816 | 0.872 | 0.858 | 0.579 | 0.443 | 0.969 | 0.863 | 0.822 | 0.453 | 0.187 | 0.559 | 0.549 | 0.554 | 0.336 | 0.298 | 0.835 | 0.775 | 0.823 | 0.725 | 0.633 |
| NCI-H1975 | 0.274 | 0.253 | 0.158 | 0.136 | 0.122 | 0.91 | 0.958 | 0.548 | 0.186 | 0.147 | 0.62 | 0.729 | 0.416 | 0.127 | 0.0865 | 0.298 | 0.297 | 0.3 | 0.309 | 0.208 |
| NCI-H1793 | 0.762 |  | 0.867 | 0.616 | 0.211 |  |  |  |  |  | 0.298 | 0.537 | 0.207 | 0.123 | 0.111 | 0.91 | 0.924 | 0.727 | 0.838 | 0.878 |
| NCI-H1355 | 1.02 | 0.97 | 1.06 | 0.711 | 0.13 | 1 | 1.04 | 1.07 | 0.756 | 0.253 | 0.536 | 0.502 | 0.511 | 0.173 | 0.129 | 1.05 | 0.994 | 1.06 | 1 | 0.966 |
| SW 900 | 0.476 | 0.485 | 0.224 | 0.169 | 0.152 |  |  |  |  |  | 0.594 | 0.667 | 0.559 | 0.326 | 0.174 | 0.494 | 0.303 | 0.527 | 0.48 | 0.446 |
| A549 |  |  |  |  |  | 0.873 | 0.537 | 0.257 | 0.112 | 0.0338 |  |  |  |  |  |  |  |  |  |  |
| NCI-H2170 | 0.271 | 0.256 | 0.286 | 0.263 | 0.136 | 1.23 | 1.13 | 1.12 | 0.434 | 0.16 | 0.72 | 0.656 | 0.699 | 0.38 | 0.164 | 0.257 | 0.243 | 0.266 | 0.276 | 0.283 |
| EKVX | 0.373 | 0.417 | 0.482 | 0.216 | 0.102 | 0.991 | 1.12 | 0.978 | 0.552 | 0.147 | 0.396 | 0.451 | 0.383 | 0.196 | 0.104 | 0.397 |  | 0.358 | 0.372 | 0.436 |
| RERF-LC-KJ | 0.673 | 0.459 | 0.464 | 0.347 | 0.358 | 0.832 | 0.82 | 0.747 | 0.617 | 0.234 | 0.545 | 0.437 | 0.306 | 0.197 | 0.2 | 0.466 | 0.461 | 0.448 | 0.457 | 0.45 |
| NCI-H1755 | 0.404 | 0.495 | 0.472 | 0.286 | 0.239 | 0.863 | 0.929 | 0.78 | 0.593 | 0.105 | 0.539 | 0.563 | 0.524 | 0.333 | 0.211 | 0.444 | 0.612 | 0.433 | 0.413 | 0.452 |
| NCI-H661 | 0.887 | 0.89 | 0.88 | 0.594 | 0.23 |  | 1.23 | 1.08 | 0.945 | 0.383 | 0.321 | 0.344 | 0.339 | 0.382 | 0.394 | 0.883 | 0.975 | 0.933 | 0.874 | 0.848 |
| LOU-NH91 | 0.396 | 0.446 | 0.361 | 0.281 | 0.284 | 0.775 | 0.757 | 0.741 | 0.706 | 0.403 | 0.713 | 0.719 | 0.707 | 0.482 | 0.308 | 0.334 | 0.382 | 0.323 | 0.379 | 0.47 |
| LXF-289 | 0.884 | 0.884 | 0.962 | 0.442 | 0.0884 | 0.817 | 0.825 | 0.682 | 0.23 | 0.0611 | 0.192 | 0.142 | 0.191 | 0.113 | 0.0447 | 0.847 | 0.907 | 0.835 | 0.94 | 0.854 |
| HCC-44 | 0.674 | 0.723 | 0.615 | 0.631 | 0.256 | 0.756 | 0.837 | 0.787 | 0.386 | 0.0992 | 0.83 | 1.05 | 0.67 | 0.268 | 0.146 | 0.64 | 0.648 | 0.589 | 0.627 | 0.652 |
| HARA | 0.221 | 0.178 | 0.228 | 0.157 | 0.13 | 1.05 | 1.01 | 0.932 | 0.138 | 0.1 | 0.111 | 0.108 | 0.11 | 0.0787 | 0.0585 | 0.236 | 0.293 | 0.249 | 0.262 | 0.303 |

— the supplement of paper PMC10307832
